Columns and labels:
[1] = tested on: Tobacco Budworm (Heliothis virescens); assay: Insecticidal test for tobacco budworm, treated cotton cotyledon leaf disc; assay type: in vivo; parameters: key: A: 90–100; B: 80–89; C: 70–79; D: 60–69; E: 50–59; F: less than 50; G: Inactive; conditions: cotton cotyledon leaf-dip, 2nd instar larvae, 5 days
[2] = tested on: Beet Armyworm (Spodoptera exigua); assay: Insecticidal test for beet armyworm, treated lepidopteran diet; assay type: in vivo; parameters: key: A: 90–100; B: 80–89; C: 70–79; D: 60–69; E: 50–59; F: less than 50; G: Inactive; conditions: on diet surface, second-instar larvae, 5 days
Outline: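 Test compound formulated at 400 ppm in 2:1 acetone:tap water; 250 μL applied onto surface of modified Shorey lepidopteran diet, five cups per compound (one cup = one replicate). After solvent air-dried, one second-instar larva placed on treated diet per cup.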

[3] = tested on: Cabbage Looper (Trichoplusia ni); assay: Insecticidal test for cabbage looper, treated cabbage leaf disc; assay type: in vivo; parameters: key: A: 90–100; B: 80–89; C: 70–79; D: 60–69; E: 50–59; F: less than 50; G: Inactive; conditions: cabbage leaf-dip, 2nd instar larvae, 5 days
[4] = tested on: Cotton Aphid (Aphis gossypii); assay: Insecticidal test for cotton aphid, spray on infested squash cotyledons; assay type: in vivo; conditions: 50 ppm spray, 3 days
Outline: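 Squash cotyledons were infested with all aphid life stages 16–20 h beforehand, then sprayed on both sides to runoff with 50 ppm compound (acetone:ethanol, 0.05% Tween 20). After 3 days at 26 °C and 40% RH, aphids were counted under a microscope, and percent control is population reduction versus untreated.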

[5] = tested on: Two-spotted Spider Mite (Tetranychus urticae); assay: Insecticidal test for two-spotted spider mite, ovicide method; assay type: in vivo; parameters: key: A: 90–100; B: 80–89; C: 70–79; D: 60–69; E: 50–59; F: less than 50; G: Inactive; conditions: cotton leaf discs, 6 days
Outline: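 Cotton leaf discs (eight, 2.2 cm each) received ten adult female two-spotted spider mites, which laid eggs for 24 hours before being taken off. The discs were then set on an agar substrate and kept at 24° C. and 90% RH for 6 days to assess ovicidal control.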

[6] = tested on: Sweetpotato Whitefly (Bemisia tabacia); assay: Insecticidal test for sweetpotato whitefly, spray on cotton plants; assay type: in vivo; parameters: key: A: 90–100; B: 80–89; C: 70–79; D: 60–69; E: 50–59; F: less than 50; G: Inactive; conditions: 200 ppm spray, 13 days, large nymphs
Outline: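 Five-week cotton plants trimmed to two leaves carried 2 days of whitefly oviposition, then adults were removed. Leaves were sprayed top and bottom with 200 ppm compound in water with 0.05% Tween 20 (acetone:ethanol co-solvent), four replicates. After 13 days at 28° C/60% RH, 3rd–4th instar nymphs were counted; percent control versus solvent-only sprayed plants.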

melting point	Compound	TBW: activity at 400 ppm against tobacco budworm (% control rating) [1]	BAW: activity at 400 ppm against beet armyworm (% control rating) [2]	CL: activity at 400 ppm against cabbage looper (% control rating) [3]	CA: activity at 50 ppm against cotton aphid (% control rating) [4]	SM: activity against two-spotted spider mite (% control rating) [5]	WF: activity at 200 ppm against whitefly (% control rating) [6]
124 to 125 °C	Cc1c(-c2nc(-c3c(F)cccc3Cl)nn2C)csc1-c1ccc(OC(F)(F)F)cc1 [Example 1, 3-(2-Chloro-6-fluorophenyl)-5-[4-methyl-5-(4-trifluoromethoxyphenyl)thien-3-yl]-1-methyl-1H-1,2,4-triazole]						
53 to 54 °C	Cn1nc(-c2c(F)cccc2Cl)nc1-c1cc(-c2cccc(C(F)(F)F)c2)sc1Cl [Example 2, 3-(2-Chloro-6-fluorophenyl)-5-[2-chloro-5-(3-trifluoromethylphenyl)thien-3-yl]-1-methyl-1H-1,2,4-triazole]						
	Cc1c(-c2nc(-c3c(F)cccc3Cl)nn2C)csc1-c1ccc(OC(F)(F)CF)cc1	G	A (90–100)	F (less than 50)	A (90–100)	G	A (90–100)
	Cn1nc(-c2c(F)cccc2Cl)nc1-c1csc(-c2ccc(OC(F)(F)F)cc2F)c1	G	G	F (less than 50)	C (70–79)	F (less than 50)	G
	Cc1c(-c2nc(-c3c(F)cccc3Cl)nn2C)csc1-c1ccc(OCC(F)(F)F)cc1	A (90–100)	A (90–100)	A (90–100)	B (80–89)	A (90–100)	A (90–100)
	Cc1c(-c2ccc(OC(F)(F)C(F)Cl)cc2)csc1-c1nc(-c2c(F)cccc2Cl)nn1C (centres unmarked)	B (80–89)	A (90–100)	A (90–100)	B (80–89)	C (70–79)	A (90–100)
	Cc1cc(-c2ccc3c(c2)COC3)sc1-c1nc(-c2c(F)cccc2Cl)nn1C	G	B (80–89)	A (90–100)	D (60–69)	C (70–79)	G
	Cn1nc(-c2c(F)cccc2Cl)nc1-c1cc(-c2ccc3c(c2)OCC3)sc1Cl	F (less than 50)	G	A (90–100)	C (70–79)	G	G
	Cc1sc(-c2ccc(C(F)(F)F)cc2F)cc1-c1nc(-c2c(F)cccc2Cl)nn1C	G	A (90–100)	A (90–100)	F (less than 50)	B (80–89)	G
	Cc1c(-c2nc(-c3c(F)cccc3Cl)nn2C)csc1-c1ccc(C(F)(F)F)cc1F	B (80–89)	A (90–100)	A (90–100)	A (90–100)	F (less than 50)	A (90–100)
	Cn1nc(-c2c(F)cccc2Cl)nc1-c1sc(-c2ccc(Br)cc2)c(Cl)c1Cl	G	A (90–100)	A (90–100)	C (70–79)	G	E (50–59)
	Cc1c(-c2nc(-c3c(F)cccc3Cl)nn2C)csc1-c1ccc(OC(F)(F)F)cc1F	A (90–100)	A (90–100)	A (90–100)	B (80–89)	F (less than 50)	A (90–100)
	CSc1ccc(-c2scc(-c3nc(-c4c(F)cccc4Cl)nn3C)c2C)cc1	G	D (60–69)	G	B (80–89)	E (50–59)	G
	Cc1c(-c2nc(-c3c(F)cccc3Cl)nn2C)csc1-c1ccc(OC(F)(F)C(F)Cl)cc1 (centres unmarked)	A (90–100)	A (90–100)	A (90–100)	B (80–89)	A (90–100)	A (90–100)
	Cc1c(-c2nc(-c3c(F)cccc3Cl)nn2C)csc1-c1ccc(Cl)cc1F	F (less than 50)	G	A (90–100)	A (90–100)	A (90–100)	G
	Cc1cc(-c2ccc(Cl)c(F)c2)sc1-c1nc(-c2c(F)cccc2Cl)nn1C	B (80–89)	A (90–100)	A (90–100)	A (90–100)	A (90–100)	G
	Cc1c(-c2nc(-c3c(F)cccc3Cl)nn2C)csc1-c1ccc(F)cc1F [drawing 224]	D (60–69)	G	A (90–100)	A (90–100)	G	G
	Cn1nc(-c2c(F)cccc2Cl)nc1-c1csc(-c2ccc(C(F)(F)F)cc2F)c1	D (60–69)	A (90–100)	A (90–100)	C (70–79)	C (70–79)	F (less than 50)
	Cn1nc(-c2c(F)cccc2Cl)nc1-c1cc(-c2ccc(Cl)cc2F)sc1Cl	F (less than 50)	A (90–100)	A (90–100)	F (less than 50)	A (90–100)	F (less than 50)
	Cc1cc(-c2cccc(OC(F)(F)F)c2)sc1-c1nc(-c2c(F)cccc2Cl)nn1C	G	G	A (90–100)	B (80–89)	A (90–100)	F (less than 50)
	CCCOc1ccc(-c2scc(-c3nc(-c4c(F)cccc4Cl)nn3C)c2C)cc1	G	A (90–100)	A (90–100)	A (90–100)	G	A (90–100)

— patent US7056940B2, “Insecticidal 3-(2,6-disubstituted phenyl)-5-[5-arylthien-2-yl]-1,2,4-triazoles” (Dow AgroSciences LLC, priority 2001, dated 2006)
